Data as given in patent US20260355199A1, “COMPOSITIONS AND METHODS FOR TREATING OR PREVENTING NONALCOHOLIC STEATOHEPATITIS (NASH), ANOREXIA, DEPRESSION, ENDOMETRIOSIS, AND OTHER DISEASES OR DISORDERS” (priority 2022, published 2026).

Tests used:
Agrp promoter = experiment: ChIP-qPCR at the Agrp promoter in mouse ARC; assay type: in vivo; conditions: leptin 5 mg/kg
Protocol: To prepare antibodies, 5 μl (packed volume) of ChIP grade Dynabeads Protein G (Invitrogen, Thermo Scientific, 10004D) were washed twice with 1 ml of binding buffer (0.2% Tween-20 in PBS), followed by incubation on a rotator with 10 μg of rabbit polyclonal anti-TET3 (Active Motif, 61395) (FIG. 12A), anti-STAT3 (Proteintech, 10253-2-AP), anti-NCOR1 (Cell Signaling, 5948S) (Hainberger et al., 2020, Front Immunol., 11:579), anti-HDAC4 (Active Motif, 40969) (FIG. 12B), anti-H3K9ac (Active Motif, 39137) (validated by the vendor), or preimmune rabbit IgG (as a negative control) in 350 μl of binding buffer at 4 °C overnight (Gao, Y. et al., 2020, Advanced Science, 7:2002518; Hainberger, D. et al., 2020, Frontiers in Immunology, 11:579). Antibody bound beads were washed twice with 1 ml of binding buffer, resuspended in 50 μl of dilution buffer (0.01% SDS, 1.1% Triton X-100, 1.2 mM EDTA, 16.7 mM Tris-HCl at PH 8.0, 167 mM NaCl), and kept on ice until use. To prepare chromatin, freshly isolated ARCs (2 ARCs from one mouse per ChIP, FIG. 6D and FIG. 6I) were washed twice with 1 ml of cold-PBS, followed by cross-linking in 1% paraformaldehyde/PBS on a rotator at room temperature for 15 min. Glycine buffer (150 mM final concentration) was added and incubated in rotation at room temperature for 10 min to quench cross-linking. Cross-linked ARCs were washed twice with PBS and homogenized (5-10 strokes) using a disposable pellet pestle (Fisher Scientific, 12-141-368) in 300 μl of cold cell lysis buffer (50 mM Tris-HCl at PH 8.0, 140 mM NaCl, 1 mM EDTA, 10% glycerol, 0.5% NP-40, 0.25% Triton X-100), followed by incubation at 4 °C for 20 min to lyse the plasma membrane. […]

[1] = system: HT-22 mouse hippocampal neuronal cells; experiment: DNA 5hmC level in HT-22 hippocampal neuronal cells; assay type: cell-based; conditions: 10 μM, 24 h
Description: It was not unprecedented that compounds initially developed as protein function inhibitors were later serendipitously found to be protein degraders (Bekes, M. et al., 2022, Nature Reviews Drug Discovery, 21(3):181-200).

let-7a = let-7a miRNA in endometriosis, NASH liver and lung tumor tissues; assay type: in vivo, mouse; conditions: lung cancer tissues
Protocol: For let-7a qPCR, 10 ng of total RNA was reverse transcribed to cDNA in a reaction volume of 10 μl using miRCURY LNA RT Kit (QIAGEN, 339340). Quantitative real-time PCR reactions were carried out using miRCURY LNA SYBR Green PCR Kit (QIAGEN, 339346) and a let-7a-specific primer (Has-Let-7a-5p miRCURY LNA miRNA PCR Assay, QIAGEN, 339306/YP00205727) in a Bio-Rad iCycler. Gene expression levels were normalized against U6 (U6 snRNA v2 miRURY LNA miRNA PCR Assay, QIAGEN, 339306/YPO2119464, QIAGEN).

| Compound | histone acetylation (H3K9ac) at the Agrp promoter (Agrp promoter) | binding of STAT3, TET3, NCOR1, and HDAC4 to the Agrp promoter (Agrp promoter; AAV-sgTet3 mice) | binding of STAT3, TET3, NCOR1, and HDAC4 to the Agrp promoter (Agrp promoter; control mice) | DNA 5hmC levels [1] | let-7a miRNA levels in disease tissues (let-7a) |
| --- | --- | --- | --- | --- | --- |
| leptin: adipose hormone; mouse leptin L3772-1MG or human leptin L4146-1MG, Sigma Aldrich | reduction was observed in histone acetylation at the Agrp promoter | failed to do so in AAV-sgTet3 injected mice | increased binding of STAT3, TET3, NCOR1, and HDAC4 to the Agrp promoter | – | – |
| Nc1nc(=O)n(-c2cccc(-c3ccccc3)c2)cc1Cl [Bobcat339, 4-Amino-1-[1,1′-biphenyl]-3-yl-5-chloro-2(1H)-pyrimidinone] | – | – | – | decreased DNA 5hmC levels | increased |
